# Measured values from US8877754B2, “Compounds, pharmaceutical compositions and uses thereof” (Boehringer Ingelheim International GmbH, priority 2010, dated 2014).
# Target: T1, human ACC2 (Homo sapiens, UniProt O00763)
# T1 construct: made in house; host or cells: insect cells, baculoviral expression system
# Assay: ACC2 assay, spectrophotometric 384 well assay (NADH-linked, coupled lactate dehydrogenase/pyruvate kinase)
# Format: biochemical
# Settings: hACC2 construct lacking the 128 N-terminal amino acids; 25° C., 340 nm, 15 minutes
# Method: Spectrophotometric 384 Well Assay
# Malonyl CoA formation by acetyl CoA carboxylases is stoichometrically linked to the consumption of ATP. ACC2 activity is measured in a NADH-linked kinetic method measuring ADP generated during the ACC reaction using a coupled lactate dehydrogenase/pyruvate kinase reaction.
# For biological testing, a human ACC2 construct which lacks the 128 amino acids at the N-terminus for increased solubility (nt 385-6966 in Genbank entry AJ575592) is cloned. The protein is then expressed in insect cells using a baculoviral expression system. Protein purification is performed by anion exchange.
# All compounds are dissolved in dimethyl sulfoxide (DMSO) to a concentration of 10 mM.
# Assay reactions are then carried out in 384-well plates, with hACC2 in an appropriate dilution and at final assay concentrations (f.c.) of 100 mM Tris (pH 7.5), 10 mM trisodium citrate, 25 mM KHCO3, 10 mM MgCl2, 0.5 mg/mL BSA, 3.75 mM reduced L-glutathione, 15 U/mL lactate dehydrogenase, 0.5 mM phosphoenolpyruvate, 15 U/mL pyruvate kinase, compounds at different concentrations at final DMSO concentrations of 1%.
# The enzymatic reaction is then started by addition of a mixture of NADH, acetyl Coenzyme A (both 200 μM f.c.) and ATP (500 uM f.c.). The decrease of the optical density (slope S) is then determined at 25° C. at a wavelength of 340 nm over 15 minutes in a spectrophotometric reader.
# Each assay microtiter plate contains wells with vehicle instead of compound as controls for the non-inhibited enzyme (100% CTL; ‘HIGH’) and wells without acetyl-CoA as controls for non-specific NADH degradation (0% CTL; ‘LOW’). The slope S is used for calculation of % CTL=(S(compound)−S(‘LOW’))/(S(‘HIGH’)—S(‘LOW’))*100. Compounds will give values between 100% CTL (no inhibition) and 0% CTL (complete inhibition).
# For IC50 value determination, the sample slope in the presence of the test compound after subtraction of the low controls (S(compound)−S(‘LOW’)) are used.
# An IC50 value is derived from the compound slopes at different dosages after subtraction of the low controls (S(compound)−S(‘LOW’)) by non-linear regression curve fitting (equation y=(A+((B−A)/(1+((C/x)^D))))).
# T1 sequence (O00763 129-2458 limits assumed): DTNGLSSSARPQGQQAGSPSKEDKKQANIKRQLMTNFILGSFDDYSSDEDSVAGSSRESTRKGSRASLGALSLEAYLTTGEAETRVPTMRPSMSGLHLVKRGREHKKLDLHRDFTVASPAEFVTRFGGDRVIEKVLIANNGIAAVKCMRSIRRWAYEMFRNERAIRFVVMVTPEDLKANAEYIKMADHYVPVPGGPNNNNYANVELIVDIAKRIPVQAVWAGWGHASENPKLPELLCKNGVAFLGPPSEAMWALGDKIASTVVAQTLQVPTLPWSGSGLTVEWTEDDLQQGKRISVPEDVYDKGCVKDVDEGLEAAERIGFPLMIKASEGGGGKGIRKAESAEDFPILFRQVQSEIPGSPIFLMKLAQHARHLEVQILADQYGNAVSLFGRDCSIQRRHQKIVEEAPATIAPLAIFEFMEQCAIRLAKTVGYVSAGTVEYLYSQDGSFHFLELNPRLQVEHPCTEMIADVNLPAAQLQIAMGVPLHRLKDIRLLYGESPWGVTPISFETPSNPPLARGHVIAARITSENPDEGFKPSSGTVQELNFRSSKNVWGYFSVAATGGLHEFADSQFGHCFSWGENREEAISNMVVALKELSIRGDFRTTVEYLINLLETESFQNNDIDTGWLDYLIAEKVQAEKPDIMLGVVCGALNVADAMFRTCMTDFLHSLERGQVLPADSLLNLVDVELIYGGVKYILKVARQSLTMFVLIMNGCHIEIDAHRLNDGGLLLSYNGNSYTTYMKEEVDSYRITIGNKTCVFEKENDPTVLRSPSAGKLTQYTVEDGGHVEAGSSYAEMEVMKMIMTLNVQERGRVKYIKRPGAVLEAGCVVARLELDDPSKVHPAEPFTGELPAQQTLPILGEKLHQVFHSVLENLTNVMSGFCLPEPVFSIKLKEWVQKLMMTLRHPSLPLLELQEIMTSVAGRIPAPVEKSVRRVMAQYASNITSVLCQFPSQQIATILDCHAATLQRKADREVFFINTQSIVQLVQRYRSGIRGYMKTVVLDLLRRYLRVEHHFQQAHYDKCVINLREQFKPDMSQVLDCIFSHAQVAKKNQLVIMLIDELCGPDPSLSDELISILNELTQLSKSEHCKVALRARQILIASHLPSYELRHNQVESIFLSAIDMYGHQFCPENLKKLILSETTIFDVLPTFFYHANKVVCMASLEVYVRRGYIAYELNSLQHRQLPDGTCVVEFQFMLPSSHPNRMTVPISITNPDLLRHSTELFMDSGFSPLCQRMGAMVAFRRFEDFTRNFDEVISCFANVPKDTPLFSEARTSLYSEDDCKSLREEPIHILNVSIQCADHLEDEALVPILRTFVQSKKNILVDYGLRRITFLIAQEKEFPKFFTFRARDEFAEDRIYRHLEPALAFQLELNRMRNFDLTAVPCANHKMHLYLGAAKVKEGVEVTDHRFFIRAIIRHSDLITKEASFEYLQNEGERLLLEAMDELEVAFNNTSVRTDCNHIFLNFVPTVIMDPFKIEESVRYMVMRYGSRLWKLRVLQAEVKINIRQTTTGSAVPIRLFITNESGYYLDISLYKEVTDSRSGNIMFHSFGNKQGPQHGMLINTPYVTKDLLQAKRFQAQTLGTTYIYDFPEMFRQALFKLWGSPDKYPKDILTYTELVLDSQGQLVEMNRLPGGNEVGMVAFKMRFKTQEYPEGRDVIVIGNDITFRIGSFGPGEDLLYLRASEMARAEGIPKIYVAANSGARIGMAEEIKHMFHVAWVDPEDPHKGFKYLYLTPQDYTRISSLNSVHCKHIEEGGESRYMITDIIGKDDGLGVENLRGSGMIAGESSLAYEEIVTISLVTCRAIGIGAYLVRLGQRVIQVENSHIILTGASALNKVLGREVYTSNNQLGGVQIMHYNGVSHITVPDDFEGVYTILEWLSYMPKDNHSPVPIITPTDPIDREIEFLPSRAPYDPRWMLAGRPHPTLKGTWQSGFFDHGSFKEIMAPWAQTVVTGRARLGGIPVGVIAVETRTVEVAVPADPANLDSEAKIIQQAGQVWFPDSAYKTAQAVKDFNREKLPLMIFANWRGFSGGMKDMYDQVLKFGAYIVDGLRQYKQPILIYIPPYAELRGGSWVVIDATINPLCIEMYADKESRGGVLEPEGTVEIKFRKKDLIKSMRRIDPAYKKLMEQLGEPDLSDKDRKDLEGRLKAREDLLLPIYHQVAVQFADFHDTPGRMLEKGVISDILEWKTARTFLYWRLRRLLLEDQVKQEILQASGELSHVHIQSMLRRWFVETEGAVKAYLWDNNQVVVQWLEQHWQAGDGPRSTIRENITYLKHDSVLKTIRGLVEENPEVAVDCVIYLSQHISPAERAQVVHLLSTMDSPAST
row,Compound,IC50 [nM]
1,CCOc1ccc(C#Cc2ccc(C(C)C(=O)Nc3ccnnc3)cc2)cc1 (stereo not drawn) [Example 6.12],130
2,CCOc1ccc(C#Cc2ccc(C(C)C(=O)Nc3ccncc3)cc2)cc1 (stereo not drawn) [Example 6.13],400
3,CCOc1ccc(C#Cc2ccc(C(C)C(=O)Nc3cccnc3)cc2)cc1 (stereo not drawn) [Example 6.14],240
4,CCOc1ccc(C#Cc2ccc(C(C)C(=O)Nc3ncccn3)cc2)cc1 (stereo not drawn) [Example 6.15],290
5,CCOc1ccc(C#Cc2ccc(C(C)C(=O)Nc3cc(C)on3)cc2)cc1 (stereo not drawn) [Example 6.16],100
6,CCOc1ccc(C#Cc2ccc(C(C)C(=O)NC3CCOCC3)cc2)cc1 (stereo not drawn) [Example 6.17],18700
7,CCOc1ccc(C#Cc2ccc(C(C)C(=O)NCc3ccno3)cc2)cc1 (stereo not drawn) [Example 6.18],18700
8,CCOc1ccc(C#Cc2ccc(C(C)C(=O)NCc3ncn[nH]3)cc2)cc1 (stereo not drawn) [Example 6.19],4500
9,CCOc1ccc(C#Cc2ccc(C(C)C(=O)Nc3ccn[nH]3)cc2)cc1 (stereo not drawn) [Example 6.20],8300
10,CCOc1ccc(C#Cc2ccc(C(C)C(=O)Nc3cc(C)[nH]n3)cc2)cc1 (stereo not drawn) [Example 6.21],25500
11,CCOc1ccc(C#Cc2ccc(C(C)C(=O)NCc3ccn(C)n3)cc2)cc1 (stereo not drawn) [Example 6.22],1500
12,CCOc1ccc(C#Cc2ccc(C(C)C(=O)Nc3nncs3)cc2)cc1 (stereo not drawn) [Example 6.23],23100
13,CCOc1ccc(C#Cc2ccc(C(C)C(=O)NCc3cnco3)cc2)cc1 (stereo not drawn) [Example 6.24],1800
14,CCOc1ccc(C#Cc2ccc(C(C)C(=O)NCC3CCOC3)cc2)cc1 (stereo not drawn) [Example 6.25],12800
15,CCOc1ccc(C#Cc2ccc(C(C)C(=O)NC(C)(C)C#N)cc2)cc1 (stereo not drawn) [Example 6.26],18700
16,"CCNC(=O)C(C)c1ccc(C#Cc2ccc(C(C)C)cc2)cc1 (stereo not drawn) [Example 7.1, N-Ethyl-2-[4-(4-isopropyl-phenylethynyl)-phenyl]-propionamide]",1300
17,CCNC(=O)C(C)c1ccc(C#Cc2ccc(OC3CCC3)cc2)cc1 (stereo not drawn) [Example 7.3],110
18,CCNC(=O)C(C)c1ccc(C#Cc2ccc(OCC3CC3)cc2)cc1 (stereo not drawn) [Example 7.4],150
19,CCNC(=O)C(C)c1ccc(C#Cc2cnc(OC)nc2OC)cc1 (stereo not drawn) [Example 7.5],4400
20,CCNC(=O)C(C)c1ccc(C#Cc2ccc(OC(F)F)cc2)cc1 (stereo not drawn) [Example 7.6],4300
21,CCNC(=O)C(C)c1ccc(C#Cc2ccc(SC)cc2)cc1 (stereo not drawn) [Example 7.7],250

row,Compound,IC50 [nM]
1,CCNC(=O)C(C)c1ccc(C#Cc2ccc3cccnc3c2)cc1 (stereo not drawn) [Example 7.8],2500
2,CCNC(=O)C(C)c1ccc(C#Cc2ccnc(OCC)c2)cc1 (stereo not drawn) [Example 7.9],250
3,CCCOc1cc(C#Cc2ccc(C(C)C(=O)NCC)cc2)ccn1 (stereo not drawn) [Example 7.10],270
4,CCNC(=O)C(C)c1ccc(C#Cc2cccc(OCc3ccccc3)c2)cc1 (stereo not drawn) [Example 7.11],380
5,CCNC(=O)C(C)c1ccc(C#Cc2cnn(Cc3ccccc3)c2)cc1 (stereo not drawn) [Example 7.12],1000
6,CCNC(=O)C(C)c1ccc(C#Cc2cc(OCC)ncn2)cc1 (stereo not drawn) [Example 7.13],2000
7,CCNC(=O)C(C)c1ccc(C#Cc2cncc(OC)c2)cc1 (stereo not drawn) [Example 7.14],5000
8,CCNC(=O)C(C)c1ccc(C#Cc2ccc(N3CCCCC3=O)cc2)cc1 (stereo not drawn) [Example 7.15],4000
9,CCNC(=O)C(C)c1ccc(C#Cc2ccc(CNc3ccccn3)cc2)cc1 (stereo not drawn) [Example 7.16],1500
10,CCNC(=O)C(C)c1ccc(C#Cc2ccc(OC(C)(C)C)cc2)cc1 (stereo not drawn) [Example 7.17],360
11,CCNC(=O)C(C)c1ccc(C#Cc2ccc3c(c2)C(=O)CC3)cc1 (stereo not drawn) [Example 7.18],2200
12,CCNC(=O)C(C)c1ccc(C#Cc2ccc3[nH]nnc3c2)cc1 (stereo not drawn) [Example 7.19],7700
13,CCNC(=O)C(C)c1ccc(C#Cc2ccc3c(c2)OCC3)cc1 (stereo not drawn) [Example 7.20],500
14,CCNC(=O)C(C)c1ccc(C#Cc2ccc(C(=O)Cn3cnc(C)c3)cc2)cc1 (stereo not drawn) [Example 7.21],22500
15,CCCc1ccc(C#Cc2ccc(C(C)C(=O)NCC)cc2)cc1 (stereo not drawn) [Example 7.22],330
16,CCNC(=O)C(C)c1ccc(C#Cc2ccc(OCC)nc2)cc1 (stereo not drawn) [Example 7.23],560
17,CCNC(=O)C(C)c1ccc(C#Cc2ccc(OC(C)C)cc2)cc1 (stereo not drawn) [Example 7.24],260
18,CCCOc1ccc(C#Cc2ccc(C(C)C(=O)NCC)cc2)cc1 (stereo not drawn) [Example 7.25],70
19,CCNC(=O)C(C)c1ccc(C#Cc2ccc(CNC(C)=O)cc2)cc1 (stereo not drawn) [Example 7.26],25500
20,CCNC(=O)C(C)c1ccc(C#Cc2ccc(COC)cc2)cc1 (stereo not drawn) [Example 7.27],10900
21,CCNC(=O)C(C)c1ccc(C#Cc2ccc(OC)nc2)cc1 (stereo not drawn) [Example 7.28],2900

row,Compound,IC50 [nM]
1,CCNC(=O)C(C)c1ccc(C#Cc2ccc(OC(C)C)nc2)cc1 (stereo not drawn) [Example 7.29],250
2,CCNC(=O)C(C)c1ccc(C#Cc2ccc(OC3CCCC3)nc2)cc1 (stereo not drawn) [Example 7.30],220
3,CCNC(=O)C(C)c1ccc(C#Cc2cc(OCc3ccccc3)ncn2)cc1 (stereo not drawn) [Example 7.31],640
4,CCNC(=O)C(C)c1ccc(C#Cc2cnn(-c3ccccc3)c2)cc1 (stereo not drawn) [Example 7.32],440
5,CCNC(=O)C(C)c1ccc(C#Cc2ccc(C3CC3)cn2)cc1 (stereo not drawn) [Example 7.33],5400
6,CCNC(=O)C(C)c1ccc(C#Cc2ccn(CC(C)C)c(=O)c2)cc1 (stereo not drawn) [Example 7.34],1100
7,CCCCn1ccc(C#Cc2ccc(C(C)C(=O)NCC)cc2)cc1=O (stereo not drawn) [Example 7.35],2100
8,CCNC(=O)C(C)c1ccc(C#Cc2ccc(OC(C)C)nn2)cc1 (stereo not drawn) [Example 7.36],3800
9,CCCCOc1ccc(C#Cc2ccc(C(C)C(=O)NCC)cc2)nn1 (stereo not drawn) [Example 7.37],3200
10,CCNC(=O)C(C)c1ccc(C#Cc2ccnc(Oc3cncnc3)c2)cc1 (stereo not drawn) [Example 7.38],2900
11,CCCOc1ccc(C#Cc2ccc(C(C)C(=O)NCC)cc2)c(C#N)c1 (stereo not drawn) [Example 7.39],1200
12,CCCOc1ccc(C#Cc2ccc(C(C)C(=O)NCC)cc2)c(Cl)c1 (stereo not drawn) [Example 7.40],140
13,CCCOc1ccc(C#Cc2ccc(C(C)C(=O)NCC)cc2)c(OC)c1 (stereo not drawn) [Example 7.41],510
14,CCCOc1ccc(C#Cc2ccc(C(C)C(=O)NCC)cc2)c(C)c1 (stereo not drawn) [Example 7.42],90
15,CCCCOc1cc(C#Cc2ccc(C(C)C(=O)NCC)cc2)ccn1 (stereo not drawn) [Example 7.43],170
16,CCNC(=O)C(C)c1ccc(C#Cc2ccnc(OC(C)C)c2)cc1 (stereo not drawn) [Example 7.44],250
17,CCNC(=O)C(C)c1ccc(C#Cc2ccnc(Oc3ccccc3)c2)cc1 (stereo not drawn) [Example 7.45],390
18,CCNC(=O)C(C)c1ccc(C#Cc2ccc(OC3CCCC3)cc2)cc1 (stereo not drawn) [Example 7.46],110
19,CCCOc1ccc(C#Cc2ccc(C(C)C(=O)NCC)cc2)cn1 (stereo not drawn) [Example 7.47],490
20,CCNC(=O)C(C)c1ccc(C#Cc2ccc(OC)c(OC)c2)cc1 (stereo not drawn) [Example 7.48],25700
21,CCNC(=O)C(C)c1ccc(C#Cc2ccc(OC3CC3)cc2)cc1 (stereo not drawn) [Example 7.49],60
